In paper PMC5712521, “Dendrogenin A drives LXR to trigger lethal autophagy in cancers” (Nature Communications, 2017):

Legend:
[1] = test system: RXRγ, FXR, SXR, PPARα, PPARγ, RARα, AHR, VDR, GR, PR, AR, ERα, ERβ; test: Gene reporter luciferase assays on other nuclear receptors; assay type: cell-based, human; conditions: 2.5 µM DDA, 8 h, with or without cognate agonist
Description: HEK293T were used for luciferase assays. Cells were transfected using the PolyEthylenImine (PEI) method with human retinoid-X receptor (RXRγ) and human liver-X-receptors (LXRα or LXRβ) with LXRE-Luc; RXRγ and human farnesoid X receptor (FXR) with EcRE-Luc; RXRγ and human steroid and xenobiotic X receptor (SXR) with DR4-Luc; RXRγ and human peroxisome proliferator activated receptors (PPARα, or PPARγ) with PPRE-Luc; RXRγ and human retinoic acid receptor (RARα) with DR1-Luc; human AHR and human ARNT with a DRE-Luc; human vitamin D receptor (VDR) with VDRE-Luc. Cells were transfected with plasmids encoding human glucocorticoid receptor (GR), progesterone receptor (PR), or androgen receptor (AR) with MMTV-Luc; or estrogen receptors (ERα and ERβ) with an ERE-Luc. The day after transfection with the luciferase reporter gene construct, cells were seeded in 12-well plates (50,000 cells per well). […] Luciferase activity was measured using the luciferase assay reagent (Promega), according to the manufacturer’s instructions. Protein concentrations were measured using the Bradford method to normalize luciferase activities. For each condition, luciferase activity was calculated from the data of three independent wells. […]

B16F10 tumors = test: B16F10 melanoma tumors in mice; assay type: in vivo; conditions: mouse B16F10; i.p. 20 mg/kg/day
Method: Exponentially growing cells were harvested, washed twice in PBS then resuspended in PBS. SKMEL-28, shSKMEL-28 clones (5 × 10^6 cells) and B16F10 (3 × 10^5) cells were injected subcutaneously (s.c.) into the flank of nude mice. HL60, KG1 and shKG1-clones (5 × 10^6) were inoculated s.c. into the flanks of NOD/SCID mice. When tumors were palpable, animals (n = 10–20 mice per group, as indicated) were randomized to receive either DDA (20 mg/kg) intraperitoneally (i.p.) or 40 mg/kg by oral gavage (p.o), once a day, or vehicle solvent for the indicated time. Animals were examined daily and body weights were measured twice a week. In all experiments, tumor volume was determined by direct measurement with a caliper and was calculated using the formula (width^2 × length)/2. At the end of experiments, mice were sacrificed and tumors were excised and divided for intra-tumoral DDA quantification, immunoblotting, or immunohistochemistry analyses.

in vivo = test: in vivo; design: species or system NSG mice; conditions: mouse, 20 mg/kg
Method: Administration R oute p.o. i. p. i. v.
T 1/2 distribution (h) - - 0.11*** […]
Bars represent S.E.M. ( ***P<0.001, **P<0.01, t test).
(also on this page, place not known: plasma times treatment mice administration plasma times treatment mice administration mg/kg mg/kg Summary pharmacokinetic parameters mice. were measured daily administration mg/kg days. (***P<0.001, mg/kg DDA in plasma (p.o.) (p.o.) DDA in plasma (µM) i.p. i.v. (mg/kg) 20 T1/2 0.1 T1/2 elimination 1.0 T1/2 - Bioavailability (%EP) (µM) 370 Tmax 0.002 marrow 0.01 0.1 1 10 Control DDA DDA level (µM) ***)

CC(C)CCC[C@@H](C)[C@H]1CC[C@H]2[C@@H]3C[C@@H](NCCc4cnc[nH]4)[C@@]4(O)C[C@@H](O)CC[C@]4(C)[C@H]3CC[C@]12C [DDA, Dendrogenin A]
agonistic or antagonistic transcriptional activity on other NRs [1]: did not show any agonistic or antagonistic transcriptional activity | tumor growth (B16F10 tumors): significantly reduced the growth | Cmax (in vivo; NSG, ip): 6.1 ± 0.95 µM | Plasma clearance (in vivo; NSG, ip): 28 mL/min/kg | Tmax (in vivo; NSG, ip): 2 h | half-life (in vivo; NSG, ip, T1/2 absorption): 19 h | half-life (in vivo; NSG, ip, T1/2 elimination): 0.9 h | Cmax (in vivo; NSG, iv): 370 µM | Tmax (in vivo; NSG, iv): 0.002 h | clearance (in vivo; NSG, iv): 27 mL/min/kg | half-life (in vivo; NSG, iv, T1/2 distribution): 0.1 h | half-life (in vivo; NSG, iv, T1/2 elimination): 0.6 h | Cmax (in vivo; NSG, po): 5.05 µM | Plasma clearance (in vivo; NSG, po): 26.2 mL/min/kg | Tmax (in vivo; NSG, po): 3 h | half-life (in vivo; NSG, po, T1/2 absorption): 43 h | half-life (in vivo; NSG, po, T1/2 elimination): 1 h | Bioavailability (in vivo; iv): 100 % EP
